Reference: PubChem BioAssay (NCI)
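Tested at 5 concentrations; 48 h exposure; 96-well plates; endpoints linearly interpolated, else capped at highest concentration. GI50: concentration for 50% inhibition of growth. Definition used: TGI = concentration required for complete inhibition of growth.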

Key:
Experiment in all cases: growth of human tumour cells (NCI), 48 h
[1] = system: KM12 colon
[2] = system: MCF7 breast
[3] = system: HOP-62 NSCLC
[4] = system: IGROV1 ovarian
[5] = system: ACHN renal
[6] = system: CAKI-1 renal
[7] = system: HL-60(TB) leukemia
[8] = system: MOLT-4 leukemia
[9] = system: SK-MEL-28 melanoma
[10] = system: LOX IMVI melanoma
[11] = system: OVCAR-8 ovarian
[12] = system: RPMI-8226 leukemia
[13] = system: HCT-15 colon
[14] = system: SF-268 CNS
[15] = system: DU-145 prostate
[16] = system: OVCAR-4 ovarian
[17] = system: PC-3 prostate
[18] = system: T-47D breast
[19] = system: M14 melanoma
[20] = system: CCRF-CEM leukemia
[21] = system: BT-549 breast
[22] = system: HCT-116 colon
[23] = system: SF-295 CNS
[24] = system: UACC-257 melanoma
[25] = system: EKVX NSCLC
[26] = system: UACC-62 melanoma
[27] = system: RXF 393 renal
[28] = system: HT29 colon
[29] = system: SNB-19 CNS
[30] = system: OVCAR-5 ovarian
[31] = system: OVCAR-3 ovarian
[32] = system: 786-0 renal
[33] = system: SW-620 colon
[34] = system: U251 CNS
[35] = system: NCI-H460 lung
[36] = system: MDA-MB-231 breast
[37] = system: A549 NSCLC
[38] = system: UO-31 renal
[39] = system: MDA-MB-435
[40] = system: MALME-3M melanoma
[41] = system: TK-10 renal
[42] = system: COLO 205 colon
[43] = system: SF-539 CNS
[44] = system: SN12C renal
[45] = system: HOP-92 NSCLC
[46] = system: HS 578T breast
[47] = system: NCI-H522 lung
[48] = system: NCI-H226 lung
[49] = system: NCI-H23 lung
[50] = system: SK-MEL-2 melanoma
[51] = system: NCI/ADR-RES ovarian
[52] = system: SK-OV-3 ovarian

Compound: CCCCC#CC#Cc1cccc(=O)o1
- GI50 [1]: 13.5 µM
- TGI [1]: 27.4 µM
- GI50 [2]: 26.1 µM
- TGI [2]: > 100 µM
- GI50 [3]: 18.1 µM
- TGI [3]: 34.4 µM
- GI50 [4]: 30.7 µM
- TGI [4]: 75.8 µM
- GI50 [5]: 14.6 µM
- TGI [5]: 28.7 µM
- GI50 [6]: 22.5 µM
- TGI [6]: 60 µM
- GI50 [7]: 15.6 µM
- TGI [7]: 43.1 µM
- GI50 [8]: 4.77 µM
- TGI [8]: 32.1 µM
- GI50 [9]: 14.4 µM
- TGI [9]: 29 µM
- GI50 [10]: 16.2 µM
- TGI [10]: 32.3 µM
- GI50 [11]: 26.4 µM
- TGI [11]: 62.9 µM
- GI50 [12]: 10.5 µM
- TGI [12]: 90.8 µM
- GI50 [13]: 20.2 µM
- TGI [13]: 39.5 µM
- GI50 [14]: 41.4 µM
- TGI [14]: > 100 µM
- GI50 [15]: 21.9 µM
- TGI [15]: 50.8 µM
- GI50 [16]: 16.4 µM
- TGI [16]: 37.6 µM
- GI50 [17]: 31 µM
- TGI [17]: > 100 µM
- GI50 [18]: 8.34 µM
- TGI [18]: 25.7 µM
- GI50 [19]: 21.7 µM
- TGI [19]: 40.6 µM
- GI50 [20]: 15.4 µM
- TGI [20]: > 100 µM
- GI50 [21]: 20.3 µM
- TGI [21]: 46.9 µM
- GI50 [22]: 14.8 µM
- TGI [22]: 28.3 µM
- GI50 [23]: 18.8 µM
- TGI [23]: 40 µM
- GI50 [24]: 22.1 µM
- TGI [24]: 46.7 µM
- GI50 [25]: 49 µM
- TGI [25]: > 100 µM
- GI50 [26]: 16.1 µM
- TGI [26]: 32.8 µM
- GI50 [27]: 32.9 µM
- TGI [27]: > 100 µM
- GI50 [28]: 13.5 µM
- TGI [28]: 36.1 µM
- GI50 [29]: 12.6 µM
- TGI [29]: 27.7 µM
- GI50 [30]: 22.3 µM
- TGI [30]: 46.6 µM
- GI50 [31]: 23.9 µM
- TGI [31]: 69.6 µM
- GI50 [32]: 16.6 µM
- TGI [32]: 34.6 µM
- GI50 [33]: 18.7 µM
- TGI [33]: 53.1 µM
- GI50 [34]: 24.6 µM
- TGI [34]: 72.7 µM
- GI50 [35]: 20.9 µM
- TGI [35]: > 100 µM
- GI50 [36]: 19.5 µM
- TGI [36]: 43.2 µM
- GI50 [37]: 39.2 µM
- TGI [37]: > 100 µM
- GI50 [38]: 21.9 µM
- TGI [38]: 46.2 µM
- GI50 [39]: 22 µM
- TGI [39]: 48.6 µM
- GI50 [40]: 14.1 µM
- TGI [40]: 27.6 µM
- GI50 [41]: 14.3 µM
- TGI [41]: 28.3 µM
- GI50 [42]: 17.7 µM
- TGI [42]: 35 µM
- GI50 [43]: 24.6 µM
- TGI [43]: 51.6 µM
- GI50 [44]: 15.1 µM
- TGI [44]: 38.8 µM
- GI50 [45]: 33.2 µM
- TGI [45]: > 100 µM
- GI50 [46]: 25.9 µM
- TGI [46]: 51.6 µM
- GI50 [47]: 23.2 µM
- TGI [47]: 52.1 µM
- GI50 [48]: 16.3 µM
- TGI [48]: 38.3 µM
- GI50 [49]: 18.4 µM
- TGI [49]: 36.2 µM
- GI50 [50]: 38.6 µM
- TGI [50]: 69.3 µM
- GI50 [51]: 17.2 µM
- TGI [51]: 37.4 µM
- GI50 [52]: 27.3 µM
- TGI [52]: 46.7 µM
